Experimental data as given in patent US10513694B2, “Thienopyrrole compounds and uses thereof” (PROMEGA CORPORATION, priority 2015, dated 2019).

Key:
Format in all cases: cell-based
Nluc enzyme = assay: Multiplex RealTime-Glo / Caspase-Glo 3/7 in MCF7 cells
Protocol: (§1) A) In a Corning 3570 assay plate, MCF7 cells were plated at 1,000 cells/well in 20 μL of cell culture media (EMEM supplemented with 0.01 mg/mL human recombinant insulin and 10% fetal bovine serum) and incubated in overnight. 10 μL of 4× REALTIME-GLO™ MT Cell Viability reagents (Promega Corporation) in media or 10 μL media only was added to the cells. 10 μL of 40 μM staurosporine in media or 10 μL media only (control) was added to the cells. The cells were incubated, and caspase activation monitored at 5.5 hrs post-reagent addition. To monitor caspase activation, 40 μL CASPASE-GLO® 3/7 Assay Reagent (Promega Corporation), either on its own (Caspase) or with 200 μM of JRW-0004, JRW-0013, or JRW-0042, was added. Reactions were incubated at RT, and luminescence was measured at 1 hr 10 min post-reagent addition on Tecan M1000 Pro plate reader.
(§2) When comparing the signal generated from the CASPASE-GLO® reagent in media only versus the signal generated in media containing REALTIME-GLO™ reagent, the signal is higher in the multiplex reaction.

Nluc = Nluc (Oplophorus gracilirostris, UniProt Q9GV45, A31E/A60N/A81I/F95D/I117V/K70R/L54V/L99Q/M102K/N193R/P142E/Q151K/Q38R/Q45L/V71I/Y165I); assay: as above; design: purchased Promega Corporation
Protocol: as §1, §2

Src-Nluc fusion protein = assay: Target engagement model (Src-Nluc BRET); conditions: HEK293 Src-Nluc -/+ 50 μg/mL digitonin; 1 μM Dasatinib-DY605 tracer; 2 hrs
Protocol: HEK293 cells were transiently transfected with Src-Nluc fusion protein. 24 hours post-transfection, cells were treated with −/+50 μg/mL digitonin to simulate a live and lytic scenario, respectively. Intact cells and permeabilized cells were labeled with 1 μM Dasatinib-DY605 tracer (impermeable) and treated with a cell impermeable thienopyrrole compound JRW-0147 response curve for 2 hrs. 10 μM furimazine was added, and a BRET ratio 610/450 nm was recorded.

[1] = test system: B2AR-Nluc or Nluc-B2AR fusion protein; assay: Cell permeability with bioluminescent imaging (HeLa, B2AR-Nluc / Nluc-B2AR); conditions: 30 μM compound, 10 μM furimazine
Protocol: HeLa cells were transiently transfected with Beta-2 Adrenergic Receptor-Nluc (B2AR-Nluc; C-Terminus Nluc) or Nluc-Beta-2 Adrenergic Receptor (Nluc-B2AR; N-terminus Nluc) fusion protein to anchor and orient Nluc intracellularly or extracellularly, respectively. 24 hrs post-transfection, cells were treated with −/+30 μM of a thienopyrrole compound, JRW-0147, JRW-0051, and JRW-0138. 10 μM furimazine was added, and luminescence was detected by imaging on the Olympus LV200.

SRC-Nluc or Nluc-HaloTag = assay: Inhibition of extracellular luciferase activity (SRC-Nluc / Nluc-HaloTag BRET); conditions: HEK293; 1 μM Dasatinib-DY605 (SRC-Nluc) or 100 nM NanoBRET-618 (Nluc-HaloTag)
Protocol: HEK293 were transiently transfected with either SRC-Nluc or Nluc-HaloTag. 24 hrs post-transfection, 20 k/cells were plated into wells of a 96-well plate (Costar 3600). 1 μM of the cell impermeable tracer Dasatinib-DY605 was added to the HEK293 SRC-Nluc expressing cells, and 100 nM of the cell permeable tracer NanoBRET-618, was added to the Nluc-HaloTag expressing cells. Both HEK293 SRC-Nluc and Nluc-HaloTag cells were exposed to a dose-response curve of JRW-0344.

HEK293 cells = assay: Cell viability and toxicity (CellTiter-Glo); conditions: up to 100 μM after 18 hrs
Protocol: HEK293 cells were plated at 20 k cells/well and exposed to vehicle (DMSO), digitonin (positive control for cell death), or JRW-0344 for 10 min/30 min/120 min/240 min/or 18 hrs. CellTiter-Glo (Promega Corp.) was added, and luminescence measured.

[2] = 10 μM Stauro vs Control, 200 μM compound
[3] = CASPASE-GLO 3/7 reagent with 200 μM compound, 1 hr 10 min

Sequence of Nluc (Q9GV45 28-196 with tags or gaps with the stated changes limits assumed): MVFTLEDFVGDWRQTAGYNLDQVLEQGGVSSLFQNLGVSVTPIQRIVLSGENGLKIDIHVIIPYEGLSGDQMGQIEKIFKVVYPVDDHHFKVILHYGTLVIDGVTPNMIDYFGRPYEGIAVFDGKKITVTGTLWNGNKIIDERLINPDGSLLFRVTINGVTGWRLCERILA

CCN(C(=O)Cn1c(C(=O)N[C@H]2CC[C@H](C(=O)OC)CC2)cc2sccc21)c1cccc(C)c1 [JRW-0013, trans-methyl-4-(4-(2-(ethyl(m-tolyl)amino)-2-oxoethyl)-4H-thieno[3,2-b]pyrrole-5-carboxamido)cyclohexane-1-carboxylate]
Fold Cont, Media only (Nluc enzyme; [2]): 6.85 | Avg (luminescence), Media only, 10 μM Stauro (Nluc enzyme; [3]): 55282 | Avg (luminescence), Media only, Control (Nluc enzyme; [3]): 8069 | Fold Cont, Media containing RealTime-Glo (Nluc; [2]): 6.29 | Avg (luminescence), Media containing RealTime-Glo, 10 μM Stauro (Nluc; [3]): 54338 | Avg (luminescence), Media containing RealTime-Glo, Control (Nluc; [3]): 8636

CCN(C(=O)Cn1c(C(=O)N[C@H]2CC[C@H](C(=O)NCCCCCC(=O)O)CC2)cc2sccc21)c1cccc(C)c1 [JRW-0147, 6-(trans-4-(4-(2-(ethyl(m-tolyl)amino)-2-oxoethyl)-4H-thieno[3,2-b]pyrrole-5-carboxamido)cyclohexane-1-carboxamido)hexanoic acid]
Inhibition of BRET in cell debris vs inside cells (FIGS. 15B-15C) (Src-Nluc fusion protein): inhibited BRET in cell debris, but not BRET inside cells | Permeability and inhibition of extracellular / intracellular Nluc by imaging (FIG. 14) [1]: impermeable and inhibited extracellular Nluc and enhanced intracellular Nluc

CCN(C(=O)Cn1c(C(=O)N[C@H]2CC[C@H](C(=O)NCCCCCCS(=O)(=O)[O-])CC2)cc2sccc21)c1cccc(C)c1.[Na+] [JRW-0344, Sodium 6-(trans-4-(4-(2-(ethyl(m-tolyl)amino)-2-oxoethyl)-4H-thieno[3,2-b]pyrrole-5-carboxamido)cyclohexane-1-carboxamido)hexane-1-sulfonate]
Inhibition of BRET (FIGS. 20A-20C) (SRC-Nluc or Nluc-HaloTag): inhibits BRET in cell debris in the HEK293 SRC-Nluc expressing cells, but not in HEK293 Nluc-HaloTag expressing cells | Toxicity (FIG. 18A) (HEK293 cells): no apparent toxicity
